Assay results as given in patent US20250040935A1, “FABRICATION OF RADIOPAQUE RESORBABLE HYDROGEL BEADS VIA MICROFLUIDICS FOR CATHETER EMBOLIZATION APPLICATIONS” (Saint Louis University, priority 2023, published 2025).

What was measured:
Type in all cases: physicochemical
[1] = Docetaxel release from PEG gels/microspheres (Example 1); conditions: in the first 60 minutes, loaded at 0.1 mg/ml, released in 20:80 anhydrous ethanol:di-water
Method: Docetaxel release and in vivo efficacy. Docetaxel was released from the PEG microspheres over several hours, with 60% released in the first 60 minutes (FIG. 2A). For bulk release experiments, docetaxel was dissolved in anhydrous ethanol, loaded in PEG gels at 0.1 mg/ml and released in a 20:80 anhydrous ethanol:di-water. Release was followed by absorbance measurements at 220 nm. […] PC3 cells (2×10^6 cells) were injected and grown to ˜120 mm^3 tumor volume prior to treatment.

[2] = Apalutamide and docetaxel bulk release from hydrogels; conditions: after 24 h; from both PEG-only and 20% BaSO4 hydrogel
Method: To determine bulk release of drugs from hydrogels, acridine orange (AO), docetaxel, bicalutamide, and apalutamide release into a sink volume was measured. Samples from the sink volume were taken over time and then the amount of sample volume that was taken out was replaced with the same amount of sink solution. The sink solution for AO experiments was PBS and the sink solution used for docetaxel, bicalutamide, and apalutamide was 80:20 ethanol to DI water. The absorbance of each sample solution was measured to calculate the concentration of drug in the sample solution. The equation used to calculate these concentrations was from the standard curves obtained for each drug or acridine orange (AO). The concentrations of drugs or AO in solution allowed for quantifying each drug release profile as well as their diffusion coefficient from a hydrogel. Apalutamide (0.5 mg/mL) stock solution was prepared in 80:20 DMSO or ethanol and DI water. A standard curve was constructed for apalutamide by creating samples of known concentrations and measuring the absorbance at 260 nm of each sample. Hydrogels were then fabricated with conditions: PEG+Doc+Apa and PEG+BaSO4+Doc+Apa (Table 6). […] Absorbances of 230 nm and 260 nm were measured for each sample to be able to obtain concentrations of docetaxel and apalutamide released into solution.

[3] = Apalutamide and docetaxel microsphere release study; conditions: within the first 24 hrs; microspheres, PEG and 20% w/v 1 μm BaSO4 groups
Method: Barium microspheres (20% w/v) were fabricated using the T-junction and then frozen overnight at −80 degrees Celsius. The next morning the microspheres were lyophilized for 1 day. Once the microspheres were fully lyophilized, they were then swollen in 10 μL 0.5 mg/mL docetaxel and apalutamide for 1 day. The next day, the excess drug was removed from the centrifuge tube and 500 μL 80:20 ethanol to DI water was added. A release study was then preformed as described above and the release profile for 20% barium microspheres was obtained.

| docetaxel released [1] | drug released [2] | initial burst release [3] | SMILES |
| --- | --- | --- | --- |
| 60% | ~90% | ~90% | CC(=O)O[C@@]12CO[C@@H]1C[C@H](O)[C@@]1(C)C(=O)[C@H](O)C3=C(C)[C@@H](OC(=O)[C@H](O)[C@@H](NC(=O)OC(C)(C)C)c4ccccc4)C[C@@](O)([C@@H](OC(=O)c4ccccc4)[C@H]21)C3(C)C [Docetaxel] |
| – | – | ~80% | CNC(=O)c1ccc(N2C(=S)N(c3cnc(C#N)c(C(F)(F)F)c3)C(=O)C23CCC3)cc1F [Apalutamide] |
